Measurements taken from patent publication US9446146B2, “Methods and agents for improving targeting of CD138 expressing tumor cells” (BIOTEST AG, priority 2007, dated 2016).

B1: huC242-DM4 (conjugate, chains of the INN, looked up)
VH: QVQLVQSGAEVKKPGETVKISCKASDYTFTYYGMNWVKQAPGQGLKWMGWIDTTTGEPTYAQKFQGRIAFSLETSASTAYLQIKSLKSEDTATYFCARRGPYNWYFDVWGQGTTVTVSS
VL: DIVMTQSPLSVPVTPGEPVSISCRSSKSLLHSNGNTYLYWFLQRPGQSPQLLIYRMSNLVSGVPDRFSGSGSGTAFTLRISRVEAEDVGVYYCLQHLEYPFTFGPGTKLELK
modifications: DM4 maytansinoid payload

Key:
[1] = tested on: MOLP-8 human multiple myeloma xenografts; assay: Xenograft mouse experiments A Part I, MOLP-8, single iv bolus; assay type: in vivo, CB.17 SCID mice; conditions: for tumor growth compared with PBS-treated animals: single iv bolus 250 μg/kg (nBT062 antibody […])
Description: In these mice, subcutaneous tumors were established (female CB.17 SCID mice) by inoculation with MOLP-8 cell suspensions. Treatment with a single bolus intravenous injection was conducted when tumor volumes reached an average 113 mm^3. Changes in tumor volume and body weight were monitored twice per week.
Each mouse was inoculated with 1×10^7 MOLP-8 cells subcutaneously into the area under the right shoulder. The total volume was 0.2 ml per mouse, in which the ratio of serum-free medium to matrigel (BD Bioscience, Bedford, Mass.) was 1/1 (v/v). Prior to treatment, the xenograft tumors were monitored daily and were allowed to become established.
Eleven days after tumor cell inoculation, 42 mice were selected based on tumor volumes and body weights. […] The forty-two mice were randomly divided into seven groups (A-G) of six animals each based on tumor volume.
Each of six mice in Group A received 200 μl of PBS as vehicle control.
All agents were intravenously administered as a single bolus injection through a lateral tail vein with a 1 ml syringe fitted with a 27 gauge, ½ inch needle.

MOLP-8 tumor xenografts = assay: Bulky MOLP-8 tumor model (Part II / Xenograft mouse experiments B); assay type: in vivo, SCID mice; conditions: 450 μg/kg dose; mean time to reach 160 mm^3 minus control
Description: In a second set of experiments, MOLP-8 cells (1.5×10^7 cells per mouse), suspended in a 50:50 mixture of serum free media and matrigel were injected subcutaneously in the area under the right shoulder in 100 μl. Tumor volumes reached about 80 mm^3 at day 11 and the mean of the controls was about 750 mm^3 at day 25, post cell inoculation. […] Each mouse in the control group (n=6) received 0.2 ml of sterile PBS administered into the lateral tail vein (i.v.) in a bolus injection. All treatment doses were based on conjugated maytansinoid. […] Mice were randomized into eleven groups (n=6) by tumor volume using the LabCat Program. The tumor volumes ranged from 40.0 to 152.5 mm^3. The mice were dosed based on the individual body weight.
Tumor size was measured twice per week in three dimensions using the LabCat System (Tumor Measurement and Tracking, Innovative Programming Associated, Inc., Princeton, N.J.).
In this set of experiments, eighty-five mice were inoculated with MOLP-8 cells (1.5×10^7 cells/mouse) subcutaneously in the right shoulder. […] Sixty-six SCID mice bearing bulky MOLP-8 tumors with a mean tumor volume of about 80 mm^3 were randomized into eleven treatment groups (n=6).

Molecule | tumor growth compared with PBS-treated animals [1] | homogeneity of anti-tumor activity in individual mice ([1]; single iv 250 μg/kg, FIG. 9) | TGD* (MOLP-8 tumor xenografts) [days]
COc1cc2cc(c1Cl)N(C)C(=O)C[C@H](OC(=O)[C@H](C)N(C)C(=O)CCC(C)(C)S)[C@]1(C)O[C@H]1[C@H](C)[C@@H]1C[C@@](O)(NC(=O)O1)[C@H](OC)/C=C/C=C(\C)C2 [DM4, N^2′-deacetyl-N^2′-(4-methyl-4-mercapto-1-oxopentyl)-maytansine] | did not cause any significant inhibition of tumor growth |  | 
B-B4-SPP-DM1 | marked delay in tumor growth | more heterogeneously and therefore less predicable | 
nBT062-DM1 |  |  | 18
B1 | did not cause any significant inhibition of tumor growth |  | 
